Laboratory results: the NIST ThermoML archive (doi:10.1016/j.jct.2007.11.002)

Experiment: xn = mol fraction of the nth substance listed
Conditions: 101 kPa, Liquid; for viscosity: Capillary tube (Ostwald / Ubbelohde) method

CN1CCOCC1 [N-methylmorpholine] + C1CCCCC1
Conditions	mass density, 298.15 K [kg/m3]	mass density, 303.15 K [kg/m3]	mass density, 313.15 K [kg/m3]	mass density, 323.15 K [kg/m3]	viscosity, 298.15 K [mPa·s]	viscosity, 303.15 K [mPa·s]	viscosity, 313.15 K [mPa·s]	viscosity, 323.15 K [mPa·s]
x2 = 0.0453	907.59	902.83	893.49	874.42	0.868	0.854	0.824	0.802
x2 = 0.1276	895.48	890.66	882.09	863.12	0.85	0.838	0.803	0.778
x2 = 0.1689	889.43	884.59	876.36	857.48	0.84	0.828	0.792	0.764
x2 = 0.2217	881.74	876.96	869.02	850.4	0.83	0.814	0.779	0.75
x2 = 0.2763	873.94	869.13	861.42	843.13	0.824	0.804	0.765	0.732
x2 = 0.3217	867.42	862.66	855.1	837.1	0.821	0.797	0.755	0.718
x2 = 0.3873	857.99	853.23	845.94	828.33	0.819	0.791	0.742	0.701
x2 = 0.4326	851.46	846.82	839.61	822.36	0.819	0.786	0.736	0.691
x2 = 0.4833	844.29	839.67	832.51	815.69	0.821	0.784	0.729	0.681
x2 = 0.5218	838.78	834.2	827.11	810.59	0.824	0.784	0.726	0.673
x2 = 0.5844	829.95	825.42	818.32	802.4	–	0.785	0.721	0.665
x2 = 0.5943	–	–	–	–	0.829	–	–	–
x2 = 0.6328	823.16	818.66	811.52	796.08	–	0.786	0.719	0.659
x2 = 0.6341	–	–	–	–	0.835	–	–	–
x2 = 0.6877	–	–	–	–	0.842	–	–	–
x2 = 0.6911	815.03	810.51	803.31	788.47	–	0.789	0.717	0.653
x2 = 0.7129	–	–	–	–	0.847	–	–	–
x2 = 0.7428	807.87	803.38	796.01	781.8	–	0.79	0.714	0.646
x2 = 0.7648	–	–	–	–	0.855	–	–	–
x2 = 0.7895	–	–	–	–	0.861	–	–	–
x2 = 0.7944	800.77	796.31	788.72	775.2	–	0.794	0.71	0.638
x2 = 0.8392	794.64	790.27	782.38	769.54	–	0.797	0.708	0.631
x2 = 0.8444	–	–	–	–	0.868	–	–	–
x2 = 0.8643	791.35	786.94	778.83	766.42	–	0.797	0.706	0.626
x2 = 0.8873	–	–	–	–	0.875	–	–	–
x2 = 0.9033	786.15	781.75	773.3	761.57	–	0.801	0.704	0.619
x2 = 0.9348	–	–	–	–	0.889	–	–	–
x2 = 0.9532	779.63	775.19	766.22	755.42	–	0.805	0.7	0.611
x2 = 0.9741	–	–	–	–	0.898	–	–	–
x2 = 0.9823	775.75	771.51	762.08	751.98	–	0.805	0.698	0.607
